Results: paper PMC9331957, “Design and Validation of Nanofibers Made of Self-Assembled Peptides to Become Multifunctional Stimuli-Sensitive Nanovectors of Anticancer Drug Doxorubicin” (Pharmaceutics, 2022)

Columns and labels:
MDA-MB-231 = experiment: Cell proliferation assay (CellTiter-Glo, ATP luminescence); assay type: cell-based, human; details: MDA-MB-231, 72 h
Procedure: The cytotoxicity profiles of the NF-Doxo and NF-Doxo-SPION were established on cancer cell line MDA-MB-231 (triple negative human breast cancer). Triple MDA-MB-231 (ECACC, Salisbury, UK) cells were cultured at 37 °C in an atmosphere containing 5% CO2. The culture medium was made of DMEM supplemented with 10% fetal bovine serum, 1% non-essential amino acid (Hyclone Laboratories, Logan, UT, USA), and 1% penicillin/streptomycin (Gibco®, Life Technologies, Paisley, UK). The cell harvesting was made with trypsin/EDTA (0.05%) (Gibco®, Life Technologies, Paisley, UK) at 80% of confluence.
Cell viability and proliferation were studied, using a luminescent test based on quantification of ATP, using the CellTiter-Glo cell proliferation assay (Promega, Madison, WI, USA). Briefly, 3.000 MDA-MB-231 cells were incubated in 100 μL of medium in 96-well plates for 24 h and then treated with different samples. A H2O2 solution at 10 mM was used as positive control and the culture medium alone was tested as a negative control. Doxo (stock solution at 5.24 mM in PBS) was used as a reference. […] Cell viability was then determined using CellTiter-Glo reagent (Promega, Madison, WI, USA). […] The luminescence values were measured with a gain at 135, with an acquisition at 0.5 s, using a microplate reader (Bio-Tek® instruments, Inc., VT, Santa Clara, CA, USA). […]

MDA-MB-231 cells = details: 1 h, 5 µM
From the text: To study the uptake of the nanofibers by cancer cells in vitro, the intrinsic fluorescence of the Doxo was followed by means of the confocal spectral imaging (CSI) technique. Briefly, the CSI consists in recording a full fluorescence spectrum from each point of a scanned optical section of the selected cell and then generating the maps (pseudo-color images) reflecting the distribution of spectral parameters (position, shape, width, intensity) in correlation with biochemical events (accumulation, interaction, metabolism, etc). The cells (SKBR3 or MDA-MB-435 cancer cell lines) were plated at a density of 5 × 10^4 cells/well onto cover glasses in 24-well plates for 1 or 6 h. […] They were analyzed under the 50× LWD objective (numerical aperture 0.75; Olympus, Tokyo, Japan) of a LabRam laser scanning confocal microspectrometer (Horiba SA, Villeneuve d’Ascq, Hauts De France, France) equipped with a 491 nm laser source (Cobolt Calypso™), an automated X–Y–Z scanning stage, a low dispersion grating (300 grooves/mm) and an air-cooled EM CCD detector. […] For fluorescence spectral images acquisition from living cells, the living cells were placed under a 50× microscope and scanned through their equatorial optical section (scanning step of 0.8 µm). The full fluorescence spectrum was recorded from each scanned point (typically 30 × 30 spectra per cell, 0.05 s per spectrum). […]

COc1cccc2c1C(=O)c1c(O)c3c(c(O)c1C2=O)C[C@@](O)(C(=O)CO)C[C@@H]3O[C@H]1C[C@H](N)[C@H](O)[C@H](C)O1 [Doxo, Doxorubicin]
IC50 ratio between NF-Doxo and free Doxo (times lower) (MDA-MB-231): 10 times | fraction of intracellular fluorescence: cytosolic (MDA-MB-231 cells): 24.6 | fraction of intracellular fluorescence: nuclear (MDA-MB-231 cells): 75.4
